In PubChem BioAssay AID488958 (The Scripps Research Institute Molecular Screening Center, 2010) one finds IC50 data, which are given here for six compounds.

This assay deals with 3C-like protease (Infectious bronchitis virus, as filed; assay for SARS-CoV 3CLpro). Kind of assay: potency of SARS-CoV 3CLpro inhibitors, late-stage follow-up, biochemical, fluorescence, dose response (AID 488958). As to conditions: recombinant 3CLpro, fluorogenic peptide cleavage.

Calls of active or inactive are those of the source. The rule behind the calls is not given here.

Turning to `CC(C)(C)NC(=O)C(c1cccnc1)N(C(=O)c1ncco1)c1ccc(C(C)(C)C)cc1` (stereo unspecified), the IC50 result was “inactive”.

On to `CC(=O)Nc1ccc(N(C(=O)Cn2nnc3ccccc32)C(C(=O)NC(C)(C)C)c2cccc(F)c2)cc1` (stereo unspecified), for which the IC50 was 6.3 µM. The figure for `CCC(C)c1ccc(N(C(=O)c2ccco2)[C@H](C(=O)NC(C)(C)C)c2cccnc2)cc1` (stereo partly specified) is 2.3 µM.

Consider `CC(=O)Nc1ccc(N(C(=O)Cn2nnc3ccccc32)C(C(=O)NCc2ccccc2)c2cccc(F)c2)cc1` (stereo unspecified), for which the IC50 is 2.9 µM. As for `CC(C)(C)NC(=O)C(c1cncnc1)N(C(=O)c1cnc[nH]1)c1ccc(C(C)(C)C)cc1` (stereo unspecified), the entry is “inactive”; as for `CC(C)(C)NC(=O)C(c1cccnc1)N(C(=O)c1ccc(Cl)o1)c1ccc(C(C)(C)C)cc1` (stereo unspecified), 5.2 µM.
